Results: patent US20110059909A1, “METHODS FOR TREATING INFLAMMATORY DISORDERS” (priority 2004, published 2011)
Entries after “also recorded” stand apart in the source; their conditions may differ.

Key:
[1] = system: ERK1/2; assay: ERK1/2 activation (phospho-ERK1/2 immunoblot) in primary astrocytes; format: cell-based, rat
Experimental: For iNOS protein, the cells were washed with cold Tris buffered saline (TBS; 20 mM Trizma base, and 137 mM NaCl, pH 7.5), lysed in 1×SDS sample loading buffer (62.5 mM Trizma base, 2% w/v SDS, 10% glycerol), following sonication and centrifugation at 15,000×g for 5 min, the supernatant was used for the iNOS western immunoblot assay. The protein concentration of samples was determined with the detergent compatible protein assay reagent (Bio-Rad Laboratories, CA) using bovine serum albumin (BSA) as the standard. Sample was boiled for 3 min with 0.1 volumes of 10% β-mercaptoethanol and 0.5% bromophenol blue mix. Fifty μg of total cellular protein was resolved by electrophoresis on 8 or 12% polyacrylamide gels, electro-transferred to polyvinylidene difluoride (PVDF) filter and blocked with Tween 20 containing Tris-buffered saline (TBST; 10 mM Trizma base-pH 7.4, 1% Tween 20, and 150 mM NaCl) with 5% skim milk. After incubation with antiserum against iNOS (BD PharMingen, CA), rat GalT-2 (Abjent Inc., CA), H-Ras (Upstate Biotechnology, CA), GFAP (Santa Cruz Biotech, CA), or phospho-specific ERK1/2 (Cell signaling Tech Inc., MA), or pIκ-B (Signal Transduction), in PVDF buffer for 2 h at room temperature, the filters were washed 3 times with TBST buffer and then incubated with horseradish peroxidase conjugated anti-rabbit or mouse IgG for 1 h. The membranes were detected by autoradiography using ECL-plus (Amersham Pharmacia Biotech) after washing with TBST buffer.

[2] = system: NF-κB; assay: κB-repeat luciferase reporter gene assay; format: cell-based, rat
Experimental: Dominant negative and constitutively active ras expression vector (pCMVrasN17 and pCMVrasv12) and κB repeat luciferase reporter construct (pNF-κB-Luc) were purchased from BD Biosciences. 3×10^5 cells/well were cultured in 6-well plates for one day before the transfection. Transfection was performed with plasmid concentration constant (2.5 μg/transfection) and 8 μl of Fugene transfection reagent (Roche Molecular Biochemicals). 24 h after transfection, the cells were placed in serum free media for overnight. Following appropriate treatment, the cells were washed with phosphate buffered saline (PBS), scraped, and then resuspended with 100 μl of lysis buffer (40 mM of Tricine pH 7.8, 50 mM of NaCl, 2 mM of EDTA, 1 mM of MgSO4, 5 mM of dithiothreitol, and 1% of Triton X-100). After incubation at room temperature for 15 min with occasional vortexing, the samples were centrifuged. The luciferase and β-galactosidase activities were measured by using luciferase assay kit (Stratagene, CA) and β-gal assay kit (Invitrogen, CA) respectively. The emitted light and optical absorbance was measured using Spectra Max/Gemini XG (Molecular Device, CA) and SpectraMax 190 (Molecular Device).

[3] = system: NF-κB; assay: NF-κB DNA binding, electrophoretic mobility shift assay; format: cell-based, rat
Experimental: Nuclear extracts from cells (1×10^7 cells) were prepared using a previously published method (Dignam et al., 1983) with slight modifications. Cells were harvested, washed twice with ice-cold TBS, and lysed in 400 μl of buffer A containing 10 mM KCl, 2 mM MgCl2, 0.5 mM dithiothreitol, protease inhibitor cocktail (Sigma), and 0.1% Nonidet P-40 in 10 mM HEPES, pH 7.9 for 10 min on ice. Following centrifugation at 5,000×g for 10 min, the pelleted nuclei were washed with buffer A without Nonidet P-40, and resuspended in 40 μl of buffer B containing 25% (v/v) glycerol, 0.42M NaCl, 1.5 mM MgCl2, 0.2 mM EDTA, 0.5 mM dithiothreitol, and Complete™ protease inhibitor cocktail (Roche) in 20 mM HEPES, pH 7.9 for 30 min on ice. The lysates were centrifuged at 15,000×g for 15 min and the supernatants containing the nuclear proteins were stored at −70° C. until use. Ten μg of nuclear proteins was used for the electrophoretic mobility shift assay for detection of NF-κB DNA binding activities. DNA-protein binding reactions were carried out at room temperature for 20 min in 10 mM Trizma base (pH 7.9), 50 mM NaCl, 5 mM MgCl2, 1 mM EDTA, 1 mM dithiothreitol, 1 μg poly (dI-dC), 5% (v/v) glycerol, and approximately 0.3 pmol of NF-κB probe (Santa Cruz Biotech) labeled with DIG-ddUTP using terminal deoxynucleotidyl transferase (Roche). […]

[4] = system: neurons; assay: Fluorescent TUNEL / NeuN staining of spinal cord sections following SCI; format: in vivo, rat
Experimental: TUNEL assay was carried out using APOPTAG Fluorescein In Situ Apoptosis Detection Kit (Serological Corporation, Norcross, Ga.) according to manufacturer's protocol. For double labeling, sections were incubated with mouse anti-neuronal nuclei 1:100 (NeuN, Chemicon, USA). Sections were incubated with TRITC conjugated […] 1:100 (Sigma), mounted in mounting media and visualized by fluorescence microscopy.

[5] = cited from earlier work
[6] = system: rat aortic vascular smooth muscle cells; conditions: cited from earlier work
[7] = system: primary cultured rat neocortical explants; conditions: cited from earlier work
[8] = system: GFAP; assay: GFAP expression (reactive astrogliosis) at the lesion epicenter following SCI
[9] = system: GalT-2; assay: GalT-2 protein level by immunoblot after antisense transfection; format: cell-based, rat; conditions: 48 h after transfection, 200 nM oligo
Experimental: For iNOS protein, the cells were washed with cold Tris buffered saline (TBS; 20 mM Trizma base, and 137 mM NaCl, pH 7.5), lysed in 1×SDS sample loading buffer (62.5 mM Trizma base, 2% w/v SDS, 10% glycerol), following sonication and centrifugation at 15,000×g for 5 min, the supernatant was used for the iNOS western immunoblot assay. The protein concentration of samples was determined with the detergent compatible protein assay reagent (Bio-Rad Laboratories, CA) using bovine serum albumin (BSA) as the standard. Sample was boiled for 3 min with 0.1 volumes of 10% β-mercaptoethanol and 0.5% bromophenol blue mix. […] The membranes were detected by autoradiography using ECL-plus (Amersham Pharmacia Biotech) after washing with TBST buffer.
A 20-mer antisense oligonucleotide of the following sequence (5′-CGCTTGAGCGCAGACATCTT-3′, SEQ ID NO:1) targeted against rat lactosylceramide synthase (GalT-2) were synthesized by Integrated DNA Technology. […] Cells were counted and plated a day before transfection and the following day were treated with Oligofectamine (Invitrogen)-oligonucleotide complexes (200 nM oligo) under serum free conditions. 48 h following transfection, the protein levels of GalT-2 were analyzed using polyclonal antibodies raised against rat GalT-2 (Abjent Inc., CA). […]

CCCCCCCCCC(=O)NC(CN1CCOCC1)C(O)c1ccccc1.Cl [PDMP, D-threo-1-Phenyl-2-decanoylamino-3-morpholino-1-propanol.HCl]
LPS/IFNγ-induced phosphorylation of ERK1/2 ([1]; pretreated 0.5 h, LPS/IFNγ 20 min): inhibited
TNFα-induced ERK1/2 phosphorylation ([1]; pretreated 0.5 h, TNFα 20 min): inhibited
LPS/IFNγ-induced κB-luciferase activity ([2]; PDMP 0.5 h before LPS/IFNγ): abolished
NF-κB DNA binding activity ([3]; increasing doses of PDMP, LPS/IFNγ 45 min): inhibited
Apoptosis of neurons (TUNEL/NeuN) ([4]; 24 h post-SCI): provided protection
Effect on neuronal survival in sham operated animals ([4]; sham operated, PDMP 20 mg/kg): no adverse effect
Solubility in water [5]: soluble in water
IL-1β stimulated nitric oxide release [6]: increased
Neurite outgrowth [7]: inhibited
GFAP, double immunofluorescence ([8]; 24 h post-SCI): significantly reduced; also recorded: significantly attenuated
GFAP mRNA and protein expression ([8]; PDMP 20 mg/kg post-SCI): effectively attenuated

AS GalT-2 oligonucleotides: 20-mer antisense oligonucleotide 5′-CGCTTGAGCGCAGACATCTT-3′, SEQ ID NO:1, against rat lactosylceramide synthase (GalT-2) (antisense CGCTTGAGCGCAGACATCTT; chemistry not given here)
GalT-2 protein levels [9]: diminished protein levels

Lactosylceramide [LacCer]
Reversal of LY-mediated inhibition of TNFα-mediated ERK1/2 activation ([1]; LY 30 μM plus LacCer 10 μM): bypassed
Reversal of PD98059-mediated inhibition of TNFα-induced ERK1/2 activity ([1]; exogenous LacCer): not
Reversal of PDMP-mediated inhibition of LPS/IFNγ-induced ERK1/2 phosphorylation ([1]; exogenous LacCer): reversed
Reversal of PDMP-mediated inhibition of TNFα-induced ERK1/2 activity ([1]; exogenous LacCer): reverse
Reversal of PDMP effect on κB-luciferase activity ([2]; exogenous LacCer): effectively bypassed
Reversal of PDMP-mediated inhibition of NF-κB DNA binding activity ([3]; exogenous LacCer): reversed
